pEC50: −log10 of the molar value.
Molecular target: T1, human S1P1 receptor (Homo sapiens, UniProt P21453)
T1 construct: expressed in transfected cells; membranes were used
Assay: GTP γ35S binding assay for S1P1 activity
Type: biochemical
Settings: membranes of cells stably expressing S1P1 receptor, agonist potency
Experimental: Compounds were synthesized and tested for S1P1 activity using the GTP γ^355 binding assay. These compounds may be assessed for their ability to activate or block activation of the human S1P1 receptor in cells stably expressing the S1P1 receptor.
GTP γ^355 binding was measured in the medium containing (mM) HEPES 25, pH 7.4, MgCl2 10, NaCl 100, dithiothreitol 0.5, digitonin 0.003%, 0.2 nM GTP γ^355, and 5 μg membrane protein in a volume of 150 μl. Test compounds were included in the concentration range from 0.08 to 5,000 nM unless indicated otherwise. Membranes were incubated with 100 μM 5′-adenylylimidodiphosphate for 30 min, and subsequently with 10 μM GDP for 10 min on ice. Drug solutions and membrane were mixed, and then reactions were initiated by adding GTP γ^355 and continued for 30 min at 25° C. Reaction mixtures were filtered over Whatman GF/B filters under vacuum, and washed three times with 3 mL of ice-cold buffer (HEPES 25, pH7.4, MgCl2 10 and NaCl 100). Filters were dried and mixed with scintillant, and counted for ^35S activity using a β-counter. Agonist-induced GTP γ^355 binding was obtained by subtracting that in the absence of agonist. Binding data were analyzed using a non-linear regression method. In case of antagonist assay, the reaction mixture contained 10 nM […] in the presence of test antagonist at concentrations ranging from 0.08 to 5000 nM.

T1 sequence (P21453 whole entry): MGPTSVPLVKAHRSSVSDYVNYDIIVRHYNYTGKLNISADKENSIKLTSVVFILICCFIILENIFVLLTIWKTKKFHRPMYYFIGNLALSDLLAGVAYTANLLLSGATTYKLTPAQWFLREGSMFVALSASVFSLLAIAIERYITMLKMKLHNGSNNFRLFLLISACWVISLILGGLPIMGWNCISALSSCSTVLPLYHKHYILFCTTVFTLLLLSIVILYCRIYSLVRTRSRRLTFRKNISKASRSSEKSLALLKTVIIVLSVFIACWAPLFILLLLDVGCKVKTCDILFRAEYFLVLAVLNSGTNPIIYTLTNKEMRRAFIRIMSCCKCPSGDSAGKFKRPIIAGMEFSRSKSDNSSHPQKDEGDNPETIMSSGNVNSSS

Row | pEC50 | Compound
1 | 8.45 | O=P(O)(O)CCCNCc1ccc(-c2noc(CCCCc3ccccc3)n2)c2cccnc12 [Compound 1, {3-[({5-[5-(4-Phenylbutyl)-1,2,4-oxadiazol-3-yl]quinolin-8-yl}methyl)amino]propyl}phosphonic acid]
2 | 8.01 | O=P(O)(O)CCCNCc1ccc(-c2noc(CCCc3ccccc3)n2)c2cccnc12 [Compound 2, {3-[({5-[5-(3-Phenylpropyl)-1,2,4-oxadiazol-3-yl]quinolin-8-yl}methyl)amino]propyl}phosphonic acid]
3 | 7.33 | O=P(O)(O)CCCNCc1ccc(-c2noc(CCCCCc3ccccc3)n2)c2cccnc12 [Compound 3, {3-[({5-[5-(5-Phenylpentyl)-1,2,4-oxadiazol-3-yl]quinolin-8-yl}methyl)amino]propyl}phosphonic acid]
4 | 7.60 | O=P(O)(O)CCCNCc1ccc(-c2noc(CCCCc3ccccc3)n2)c2ccccc12 [Compound 4, {3-[({4-[5-(4-Phenylbutyl)-1,2,4-oxadiazol-3-yl]-1-naphthyl}methyl)amino]propyl}phosphonic acid]
5 | 7.65 | O=P(O)(O)OCCNCc1ccc(-c2noc(CCCCc3ccccc3)n2)c2ccccc12 [Compound 6, 2-[({4-[5-(4-Phenylbutyl)-1,2,4-oxadiazol-3-yl]-1-naphthyl}methyl)amino]ethyl dihydrogen phosphate]

Source: patent US8957051B2, “Bicyclic 1, 2, 4-oxadiazoles derivatives as sphingosine-1 phosphate receptors modulators” (Allergan, Inc., priority 2012, dated 2015)
